According to patent publication US11286414B2, “Sodium nitroprusside and nitrate metabolic inhibition of sulfate-reducing microbes to control sulfide production” (UTI Limited Partnership, priority 2017, dated 2022):

Tests used:
[1] = system: SRB consortia; assay: Souring control in sand-packed bioreactors containing heavy oil; assay type: cell-based, SRB consortia from MHGC produced water (18PW)
[2] = system: 4PW SRB consortia; assay: Comparison of SNP with other biocides on souring; assay type: cell-based, SRB consortia enriched from 4PW; settings: 10 ppm added at start of growth, one month

Row | Compound | effect on sulfide concentration in the effluent ([1]; injection of 2 PV CSBK-S with 85 ppm (1 mM) or 170 ppm (2 mM) nitrate) | sulfate reduction ([1]; injection of 2 PV of 340 ppm (4 mM) nitrate) | concentration that inhibited sulfate reduction / controlled souring when used singly ([1]; oil as electron donor) | metabolic activity and growth of SRB (sulfide, sulfate, lactate concentrations) [2]
1 | O=[N+]([O-])[O-].[Na+] [nitrate, sodium nitrate] | did not affect the sulfide concentration in the effluent | inhibition of sulfate reduction was observed | 340 ppm | 
2 | O=CCCCC=O [Glut, glutaraldehyde] |  |  |  | not effective at this low dosage
3 | tetrakishydroxymethyl phosphonium sulfate [THPS] |  |  |  | not effective at this low dosage
4 | benzalkonium chloride [BAC] |  |  |  | not effective at this low dosage
5 | cocodiamine |  |  |  | not effective at this low dosage
